Experimental data from ChEMBL document CHEMBL1123948, “Synthesis and biological evaluation of poly-gamma-glutamyl metabolites of 10-deazaaminopterin and 10-ethyl-10-deazaaminopterin” (J Med Chem, 1988).
Values joined by “and” are separate entries in the source; they are usually repeats but may differ in a detail not shown here. Equal entries are not always repeated.

Legend:
[1] = test system: Lacticaseibacillus casei; experiment: Inhibitory activity against the growth of Lactobacillus casei (ATCC 7469) was determined (glutamate residue 4); assay type: functional, organism-based
[2] = test system: Lacticaseibacillus casei; experiment: Inhibitory activity against thymidylate synthase in Lactobacillus casei was determined (glutamate residue 1); assay type: functional, organism-based
[3] = test system: Lacticaseibacillus casei; experiment: Inhibitory activity against thymidylate synthase in Lactobacillus casei was determined (glutamate residue 5); assay type: functional, organism-based
[4] = test system: Lacticaseibacillus casei; experiment: Inhibitory activity against the growth of Lactobacillus casei (ATCC 7469) was determined (glutamate residue 5); assay type: functional, organism-based
[5] = test system: Lacticaseibacillus casei; experiment: Inhibitory activity against the growth of Lactobacillus casei (ATCC 7469) was determined (glutamate residue 6); assay type: functional, organism-based
[6] = test system: Lacticaseibacillus casei; experiment: Inhibitory activity against thymidylate synthase in Lactobacillus casei was determined (glutamate residue 4); assay type: functional, organism-based
[7] = test system: Lacticaseibacillus casei; experiment: Inhibitory activity against the growth of Lactobacillus casei (ATCC 7469) was determined (glutamate residue 3); assay type: functional, organism-based
[8] = test system: Enterococcus hirae (Streptococcus faecium ATCC 8043); experiment: Inhibitory activity against the growth of Streptococcus faecium (ATCC 8043) was determined (glutamate residue 6)
[9] = test system: Lacticaseibacillus casei; experiment: Inhibitory activity against the growth of Lactobacillus casei (ATCC 7469) was determined (glutamate residue 2); assay type: functional, organism-based
[10] = test system: Lacticaseibacillus casei; experiment: Inhibitory activity against thymidylate synthase in Lactobacillus casei was determined (glutamate residue 6); assay type: functional, organism-based
[11] = test system: Lacticaseibacillus casei; experiment: Inhibitory activity against thymidylate synthase in Lactobacillus casei was determined (glutamate residue 3); assay type: functional, organism-based
[12] = test system: Lacticaseibacillus casei; experiment: Inhibitory activity against thymidylate synthase in Lactobacillus casei was determined (glutamate residue 2); assay type: functional, organism-based
[13] = test system: Lacticaseibacillus casei; experiment: Inhibitory activity against the growth of Lactobacillus casei (ATCC 7469) was determined (glutamate residue 1); assay type: functional, organism-based
[14] = target: T1, Dihydrofolate reductase (Lactobacillus casei, UniProt P00381); experiment: Inhibitory activity against dihydrofolate reductase in Lactobacillus casei was determined (glutamate residue 4); assay type: functional, Lacticaseibacillus casei
[15] = target: T1, Dihydrofolate reductase; experiment: Inhibitory activity against dihydrofolate reductase in Lactobacillus casei was determined (glutamate residue 3); assay type: functional, Lacticaseibacillus casei
[16] = target: T1, Dihydrofolate reductase; experiment: Inhibitory activity against dihydrofolate reductase in Lactobacillus casei was determined (glutamate residue 5); assay type: functional, Lacticaseibacillus casei
[17] = target: T1, Dihydrofolate reductase; experiment: Inhibitory activity against dihydrofolate reductase in Lactobacillus casei was determined (glutamate residue 2); assay type: functional, Lacticaseibacillus casei
[18] = target: T1, Dihydrofolate reductase; experiment: Inhibitory activity against dihydrofolate reductase in Lactobacillus casei was determined (glutamate residue 6); assay type: functional, Lacticaseibacillus casei

T1 sequence (P00381 whole entry): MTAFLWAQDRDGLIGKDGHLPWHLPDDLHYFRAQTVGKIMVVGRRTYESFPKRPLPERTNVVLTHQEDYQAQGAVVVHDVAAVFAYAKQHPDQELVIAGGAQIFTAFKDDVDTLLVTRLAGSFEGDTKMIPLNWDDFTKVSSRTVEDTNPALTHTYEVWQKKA

Row | IC50 [2] [µM] | IC50 [3] [µM] | IC50 [6] [µM] | IC50 [11] [µM] | IC50 [12] [µM] | IC50 [14] [nM] | IC50 [15] [nM] | IC50 [16] [nM] | IC50 [17] | IC50 [18] [nM] | SMILES | IC50 [1] [nM] | IC50 [4] [nM] | IC50 [5] [nM] | IC50 [7] [nM] | IC50 [8] [µM] | IC50 [9] [nM] | IC50 [10] [nM] | IC50 [13] [nM]
1 | > 300 | 7.4 | 14 | 28 | 170 |  |  |  |  |  | CCC(Cc1cnc2nc(N)nc(N)c2n1)c1ccc(C(=O)N[C@@H](CCC(=O)O)C(=O)O)cc1 (stereo not given in full) [EDATREXATE] | 9 | 90 |  | 1 |  | 0.16 |  | 0.63
2 | > 300 | 3.5 | 5.5 | 11 | 88 | 20 | 22 | 21 | 18 nM and 24 nM | 34 | Nc1nc(N)c2nc(CCc3ccc(C(=O)N[C@@H](CCC(=O)O)C(=O)O)cc3)cnc2n1 | 3 | 14 | 90 | 0.6 | > 3 | 0.09 | 2300 | 0.08

Row | SMILES | IC50 [2] [µM] | IC50 [3] [µM] | IC50 [6] [µM] | IC50 [11] [µM] | IC50 [12] [µM] | IC50 [14] [nM] | IC50 [15] [nM] | IC50 [16] [nM] | IC50 [17] | IC50 [18] [nM] | IC50 [1] [nM] | IC50 [4] [nM] | IC50 [5] [nM] | IC50 [7] [nM] | IC50 [8] [µM] | IC50 [9] [nM] | IC50 [10] [nM] | IC50 [13] [nM]
3 | CN(Cc1cnc2nc(N)nc(N)c2n1)c1ccc(C(=O)N[C@@H](CCC(=O)O)C(=O)O)cc1 [METHOTREXATE] | 100 | 0.28 | 0.18 | 1.1 | 6 |  |  |  |  |  | 0.8 | 2.2 | 27 | 0.2 | > 8 | 0.09 | 280 | 
